From ChEMBL document CHEMBL4152235, “Synthesis, anionophoric activity and apoptosis-inducing bioactivity of benzimidazolyl-based transmembrane anion transporters” (Eur J Med Chem, 2018)
pEC50, pIC50: −log10 of the molar value. Calls of active or inactive are those of the source. The rule behind the calls is not given here.

Legend:
A549 [1] = assay: Cytotoxicity against human A549 cells assessed as reduction in cell viability at 50 uM after 48 hrs by MTT assay relative to control; type: functional; details: A549, 48 h
MCF7 [2] = assay: Cytotoxicity against human MCF7 cells assessed as reduction in cell viability at 50 uM after 48 hrs by MTT assay relative to control; type: functional; details: MCF7, 48 h
HeLa [3] = assay: Cytotoxicity against human HeLa cells assessed as reduction in cell viability at 50 uM after 48 hrs by MTT assay relative to control; type: functional
HepG2 [4] = assay: Cytotoxicity against human HepG2 cells assessed as reduction in cell viability at 50 uM after 48 hrs by MTT assay relative to control; type: functional; details: HepG2, 48 h
HeLa [5] = assay: Cytotoxicity against human HeLa cells assessed as reduction in cell viability after 48 hrs by MTT assay; type: functional, cell-based
MCF7 [6] = assay: Cytotoxicity against human MCF7 cells assessed as reduction in cell viability after 48 hrs by MTT assay; type: functional, cell-based; details: MCF7, 48 h
A549 [7] = assay: Cytotoxicity against human A549 cells assessed as reduction in cell viability after 48 hrs by MTT assay; type: functional, cell-based; details: A549, 48 h
L02 = assay: Cytotoxicity against human LO2 cells assessed as reduction in cell viability after 48 hrs by MTT assay; type: cell-based; details: L02, 48 h
HepG2 [8] = assay: Cytotoxicity against human HepG2 cells assessed as reduction in cell viability after 48 hrs by MTT assay; type: functional, cell-based; details: HepG2, 48 h
[9] = Ionophoric activity across pyranine dye encapsulated pH 7 egg yolk L-alpha-phosphatidylcholine-based liposomal membranes assessed as chloride ion transport by measuring induction of pH discharge after 20 mins in presence of NaCl loaded external vesicles by fluorescence method relative to m-Bimbe
MCF7 [10] = assay: Ionophoric activity across human MCF7 cells assessed as chloride ion efflux up to 10 uM after 2 hrs by MQAE dye based fluorescence assay; type: cell-based
[11] = (§1) Ionophoric activity across pyranine dye encapsulated pH 7 egg yolk L-alpha-phosphatidylcholine-based liposomal membranes assessed as chloride ion transport by measuring induction of pH discharge after 20 mins in presence of NaCl loaded external vesicles by fluorescence method; details: for pEC50: read-out: EC50
[12] = Binding affinity to chloride ion at 1.5 x 10^-5M using tetra(n-butyl)ammonium chloride measured after 2 mins by spectrophotometric titration method
HeLa [13] = assay: Ionophoric activity across human HeLa cells assessed as chloride ion efflux up to 10 uM after 2 hrs by MQAE dye based fluorescence assay; type: cell-based
HeLa [14] = assay: Ionophoric activity across human HeLa cells assessed as chloride ion efflux at 10 uM after 3 hrs by acridine orange staining based fluorescence microscopic analysis; type: cell-based
[15] = Binding affinity to chloride ion assessed as 1:1 compound-Cl- complex formation at 4.1 mM using tetra(n-butyl)ammonium chloride by ESI MS spectrometric method
[16] = Binding affinity to chloride ion at 1.5 x 10^-5M using tetra(n-butyl)ammonium chloride measured after 5 mins by spectrophotometric titration method
[17] = as §1, with “measuring initial rate constant for” for “measuring”, “discharge at 3.13 x 10^-2 mol%” for “discharge”, “method (reference value: 5.03 +/- 1.02 10^-3/min)” for “method”
[18] = as §1, with “measuring initial rate constant for” for “measuring”, “discharge at 1.56 x 10^-2 mol%” for “discharge”, “method (reference value: 5.03 +/- 1.02 10^-3/min)” for “method”
[19] = as §1, with “measuring initial rate constant for” for “measuring”, “discharge at 1.25 x 10^-1 mol%” for “discharge”, “method (reference value: 5.03 +/- 1.02 10^-3/min)” for “method”
[20] = as §1, with “measuring initial rate constant for” for “measuring”, “discharge at 2.50 x 10^-1 mol%” for “discharge”, “method (reference value: 5.03 +/- 1.02 10^-3/min)” for “method”
[21] = as §1, with “measuring initial rate constant for” for “measuring”, “discharge at 7.81 x 10^-3 mol%” for “discharge”, “method (reference value: 5.03 +/- 1.02 10^-3/min)” for “method”
[22] = as §1, with “measuring initial rate constant for” for “measuring”, “discharge at 6.25 x 10^-2 mol%” for “discharge”, “method (reference value: 5.03 +/- 1.02 10^-3/min)” for “method”

Structure (SMILES) | inhibition at 50 µM (A549 [1]) | inhibition at 50 µM (MCF7 [2]) | inhibition at 50 µM (HeLa [3]) | inhibition at 50 µM (HepG2 [4]) | pIC50 (HeLa [5]) | pIC50 (MCF7 [6]) | pIC50 (A549 [7]) | pIC50 (L02) | pIC50 (HepG2 [8]) | fold change (FC) [9] | EC50 [11] | pEC50 [11] | also measured
c1ccc(-c2nc3ccccc3[nH]2)cc1 | 1.2% | 25.5% | 8.1% | 11.6% |  |  |  |  |  |  |  |  | 
Brc1ccc2nc(-c3cccc(-c4nc5ccc(Br)cc5[nH]4)c3)[nH]c2c1 | 92.6% | 93.5% | 98% | 93.1% | 4.68 | 5.01 | 4.66 | 4.75 | 4.92 |  |  |  | 
FC(F)(F)c1ccc2nc(-c3cccc(-c4nc5ccc(C(F)(F)F)cc5[nH]4)c3)[nH]c2c1 | 99.3% | 98.8% | 100% | 100% | 5.10 | 4.89 | 5.05 | 4.96 | 5.18 | 67 | 9.59 ×10⁻² mol% | 5.90 | Activity (MCF7 [10]): Active; Ka [12]: 4.52 ×10³ /M; Activity (HeLa [13]): Active; Activity (HeLa [14]): Active
COc1cc(-c2nc3ccc([N+](=O)[O-])cc3[nH]2)cc(-c2nc3ccc([N+](=O)[O-])cc3[nH]2)c1 | 67.7% | 96.3% | 85.3% | 96.7% | 6.00 | 4.77 | 4.73 | 4.58 | 5.05 | 20 | 0.32 mol% | 5.37 | Activity [15]: Active; Activity [11]: Dose-dependent effect; Ka [16]: 1.56 ×10³ /M
c1ccc(-c2nc3ccccc3[nH]2)c(-c2nc3ccccc3[nH]2)c1 | -6% | 11.6% | 24.9% | 3.6% |  |  |  |  |  |  |  |  | 
Cn1c(-c2cccc(-c3nc4ccccc4n3C)c2)nc2ccccc21 | 22.2% | 23.3% | 43.2% | 49.1% |  |  |  |  |  |  |  |  | 
c1cc(-c2nc3ccccc3[nH]2)cc(-c2nc3ccccc3[nH]2)c1 | 91.1% | 31.9% | 96.5% | 69.5% | 5.07 | < 4.00 | 4.41 | 4.70 | 4.69 |  | 6.47 mol% | 4.07 | Activity [15]: Active; Activity (MCF7 [10]): Active; Ka [12]: 2.48 ×10³ /M; Activity (HeLa [13]): Active; Activity (HeLa [14]): Active
Clc1ccc2nc(-c3cccc(-c4nc5ccc(Cl)cc5[nH]4)c3)[nH]c2c1 | 82.4% | 90.5% | 95.6% | 98.4% | 4.97 | 4.59 | 4.63 | 4.86 | 5.04 |  |  |  | 
c1ccc2[nH]c(-c3ccc(-c4nc5ccccc5[nH]4)cc3)nc2c1 | 53.1% | 63.3% | 59.6% | 17.4% |  |  |  |  |  |  |  |  | 
COc1cc(-c2nc3ccc(C(F)(F)F)cc3[nH]2)cc(-c2nc3ccc(C(F)(F)F)cc3[nH]2)c1 | 100% | 98.9% | 91.8% | 101% | 5.08 | 4.92 | 5.09 | 5.00 | 4.97 | 43 | 0.15 mol% | 5.70 | K [17]: 6.31 ×10⁻² /min; Activity [15]: Active; K [18]: 4.33 ×10⁻² /min; K [19]: 1.16 ×10⁻¹ /min; Activity (MCF7 [10]): Active; Activity [11]: Dose-dependent effect; K [20]: 1.47 ×10⁻¹ /min; K [21]: 3.23 ×10⁻² /min; Activity (HeLa [13]): Active; Activity (HeLa [14]): Active; Ka [16]: 3.53 ×10³ /M; K [22]: 8.52 ×10⁻² /min
O=[N+]([O-])c1ccc2nc(-c3cccc(-c4nc5ccc([N+](=O)[O-])cc5[nH]4)c3)[nH]c2c1 | 52.1% | 47.4% | 59.2% | 15.4% |  |  |  |  |  | 790 | 8.19 ×10⁻³ mol% | 6.96 | Ka [12]: 2.22 ×10³ /M
COc1cccc2c1C(=O)c1c(O)c3c(c(O)c1C2=O)C[C@@](O)(C(=O)CO)C[C@@H]3O[C@H]1C[C@H](N)[C@H](O)[C@H](C)O1 [DOXORUBICIN] |  |  |  |  | 6.30 | 6.10 | 6.22 | 6.96 | 5.68 |  |  |  | 
Fc1ccc2nc(-c3cccc(-c4nc5ccc(F)cc5[nH]4)c3)[nH]c2c1 | 33.6% | 26.4% | 83.5% | 78.9% | 4.94 | < 4.00 | < 4.00 | 4.68 | 4.76 |  |  |  | 
